Structures can show the parent of a compound that is named as a salt.
Test system: person with erectile dysfunction
Assay: Erectile strength rated on a unilinear scale of 1 to 10 in treated patients
Assay type: in vivo, human
Source text: Subsequent discontinuation of Pavabid and Trental and placed on Viagra alone.

For `CCCc1nn(C)c2c(=O)[nH]c(-c3cc(S(=O)(=O)N4CCN(C)CC4)ccc3OCC)nc12` [Viagra, sildenafil citrate], the erectile strength (Example 1: person, rated 3 before treatment) was 7 and the erectile strength (Example 2: person, rated 2 prior to treatment) was 6.
